US20180354920A1, “SUBSTITUTED OXADIAZOLES FOR COMBATING PHYTOPATHOGENIC FUNGI” (BASF SE, priority 2015, published 2018)

## CCC(=O)Nc1ccc(-c2noc(C(F)(F)F)n2)cn1 [Ex-1, N-[5-[5-(trifluoromethyl)-1,2,4-oxadiazol-3-yl]-2-pyridyl]propanamide]
  melting point: 130 °C
